From article PMC9256669, “Monomethyl auristatin antibody and peptide drug conjugates for trimodal cancer chemo-radio-immunotherapy” (Nature Communications, 2022)
Where two headings read alike, the source gives them in different places. Non-standard residues stand in square brackets, D forms with d. Residues, ends and D or L forms follow the SMILES beside them. *: point of attachment. Dolaproine = CO[C@@H]([C@@H]1CCCN1)[C@@H](C)C(=O)O; Dil = CC[C@H](C)[C@H](NC)[C@@H](CC(=O)O)OC; X1 = C[C@@H](N*)[C@@H](O)c1ccccc1; NMeV = CN[C@H](C(=O)O)C(C)C

Tests used:
[1] = tested on: CAL27 WT and CAL27 PIK3CA H1047R cells; assay: Cell culture MMAE sensitivity of isogenic cell lines; assay type: cell-based, human; conditions: CAL27 WT vs CAL27 PIK3CA H1047R
Source text: Specific Comment 3: “Line 266: fig 3e: the **** significance; is this IR+MMAE vs IR, or vs MMAE? Please […]
Response: Reviewer #2 raised a similar comment, (Rev #2, Comment 5). As mentioned, the statistical analysis in our original submission compared all 4 experimental groups. Based on Reviewers #2 & #4 […]
Importantly for scientific rigor & reproducibility , we would highlight that MMAE ± IR tumor response studies in syngeneic mice were replicated […]
Specific Comment 4: “Experiments with RAG mice showing that CD8+ T-cells are involved in the response to MMAE+IR are intriguing. A mechanistic explanation is however lacking. If T-cells are crucial for tumor control under IR, why is there such good response in CAL27 xenografts in nude mice with monotherapy only?” […]
adaptive immunity on durable tumor control of syngeneic tumors treated with MMAE + IR. Using depleting […]
mediated durable tumor control of MMAE radiosensitization . […]
Response: In cell culture testing, MOC1 and MOC2 cells were sensitive to MMAE and CDX3379-MMAE as measured by Alamar Blue assay. For Alamar Blue assay cytotoxicity, we measured cell viability at 72 hr of […]

LL/2 tumors = conditions: for Mouse survival, status: individual mice, status at the day, Figure 3e
Source text: (§1) LL/2 cells treated with dose range of MMAE overnight and then […] in drug free media for 7-10 days to allow for visualized colonies to form.
(§2) Statistical significances calculated using one-way ANOVA with Tukey’s multiple comparisons test. 0.9 b) Cell cycle analysis […]
(§3) of MMAE treated LL/2 cells, mean ± SD, n=2. […]
(§4) experiments. c) Clonogenic survival of LL/2 cells treated with MMAE and 2 Gy (SF2). Cell Days viability normalized to non-irradiated cells for each drug condition and plotted as mean fractional survival ± SEM, n=6. Statistical significances calculated using one-way ANOVA with Sidak’s multiple comparisons test. d) Tumor volumes (n=10) and mouse body weights (n=5) of mice from experiments in Fig. 3e. Tumor volumes plotted as mean volume of surviving mice ± SEM.
(§5) Mouse body weight were normalized to each mouse’s weight on day 0, i.e. tumor implantation.
(§6) Data plotted as mean fractional body weight ± SEM. e) Mouse body weights of mice (n=5) from experiments in Fig. 4h were normalized to each mouse’s weight on day of tumor implantation.
(§7) Data is plotted as individual normalized body weights. f) Mouse body weights of mice from experiments in Fig. 5e, f were normalized to each mouse’s weight on day of tumor implantation.
(§8) Source data are provided in Source Data file.

MC38 tumors = tested on: MC38 tumors
Source text: as §1, §2, §3, §4, §5, §6, §7, §8

B16 tumors [2] = tested on: B16 tumors
Source text: as §1, §2, §3, §4, §5, §6, §7, §8

B16 tumors [3] = assay: NanoString nCounter PanCancer Mouse Immune Profiling of tumors; assay type: in vivo, C57BL/6 mice; conditions: ACPP-MMAE alone vs vehicle
Procedure: RNA was isolated from cells or tumor tissues and comprehensive immune profiling was analyzed using the NanoString PanCancer IO 360 Panel and NanoString nCounter PanCancer Mouse Immune Profiling gene expression platforms. Gene set analysis with calculated global significance scores and directed significance scores were calculated for treated cells. The Advanced Analysis module of the nSolver software was used to analyze genes associated with listed immune cells in tumors and given a Z-score (n = 3 mice per group). Expression levels of GZMB were analyzed using real-time quantitative PCR. Reverse transcription was performed with the iScript cDNA synthesis kit (Biorad), using aliquots of total RNA extracted with RNeasy Plus Mini Kit (Qiagen). Gene-specific primers were GZMB-F […] and GZMB-R […]. Real-time PCR reactions were performed using the CFX Connect Real-Time PCR System (Biorad) and the amplifications were done using the iTaq Universal SYBR Green Supermix (Biorad). qPCR data were analyzed using the Bio-Rad CFX Maestro software.
Supplementary Data 1: Complete NanoString expression data of Figure 1b. Untreated control (n=2) and 5 nM MMAE treated (n=3) B16 cells were harvested at 72 hrs. RNA was collected and analyzed using NanoString PanCancer IO 360 Panel. […]
were harvested. RNA was collected and analyzed using NanoString nCounter PanCancer Mouse Immune Profiling panel. […]

[4] = 10 nmoles ACPP-MMAE x 2 doses + IR 5 Gy/day x 3
[5] = 10 nmoles ACPP-MMAE x 2 doses, no IR
[6] = ACPP-MMAE alone, individual mice, status at the day, Figure 3e

Molecule | MMAE sensitivity of isogenic cell lines [1] | survival and tumor control, + IR (LL/2 tumors; [4]) | anti-tumor efficacy, monotherapy (LL/2 tumors; [5]) | Mouse survival, status (LL/2 tumors; ACPP-MMAE + IR) | Mouse survival, status (LL/2 tumors; ACPP-MMAE alone) | survival and tumor control, + IR (MC38 tumors; 10 nmoles ACPP-MMAE x 2 doses + IR 3 Gy/day x 3) | anti-tumor efficacy, monotherapy (MC38 tumors; [5]) | Mouse survival, status (MC38 tumors; [6]) | survival and tumor control, + IR (B16 tumors [2]; [4]) | anti-tumor efficacy, monotherapy (B16 tumors [2]; [5]) | Mouse survival, status (B16 tumors [2]; [6]) | tumor infiltration of immune cell types (NanoString) (B16 tumors [3])
CC[C@H](C)[C@@H]([C@@H](CC(=O)N1CCC[C@H]1[C@H](OC)[C@@H](C)C(=O)N[C@H](C)[C@@H](O)c1ccccc1)OC)N(C)C(=O)[C@@H](NC(=O)[C@@H](NC)C(C)C)C(C)C [MMAE, monomethyl auristatin E] (H-[NMeV]V[Dil][Dolaproine]-X1) | did not see an appreciable difference in MMAE sensitivity between the isogenic cell lines | – | – | – | – | – | – | – | – | – | – | –
cyclo(RGD)fc-MC-HN-peg8-e9-oPLGC(Me)AG-r9-c-(MC-VC-PABC-MMAE)-CONH2 [ACPP-MMAE] | – | modestly prolonged mouse survival and tumor control | lacked significant anti-tumor efficacy | 1 | 1 | long-term survival and tumor control | lacked significant anti-tumor efficacy | 1 | long-term survival and tumor control | lacked significant anti-tumor efficacy | 1 | minimal effects
